In patent US20240124466A1, “COMPOUNDS AND USE THEREOF FOR TREATMENT OF NEURODEGENERATIVE, DEGENERATIVE AND METABOLIC DISORDERS” (VOVA IDA THERAPEUTICS, INC., priority 2020, published 2024):

System: PK1 neuroblastoma cells exposed to TPrP
Experiment: cells
Settings: Neuroblastoma cell, 96 h, read-out: TPrP EC50

| Compound | EC50 [nM] |
| --- | --- |
| C=CCN1C[C@H](C)N(S(=O)(=O)c2cc(-c3ccnc(Cl)c3)ccc2C)C[C@H]1C (relative stereo) [SR-35465, (trans)-1-allyl-4-((5-(2-chloropyridin-4-yl)-2-methylphenyl)sulfonyl)-2,5-dimethylpiperazine] | > 1500 |
| Cc1ccc(-c2cnn(C)c2)cc1S(=O)(=O)N1CCOCC1 [SR-24578] | 100 |
| Cc1ccc(-c2cnn(CCN3CCOCC3)c2)cc1S(=O)(=O)N1CCOCC1 [SR-24581] | 100 |
| Cc1ccc(-c2ccncc2)cc1S(=O)(=O)N1CCOCC1 [SR-24583] | 100 |
| CC(=O)NCCNc1cc(-c2ccc(C)c(S(=O)(=O)N3CCOCC3)c2)ccn1 [SR-25104, N-(2-((4-(4-methyl-3-(morpholinosulfonyl)phenyl)pyridin-2-yl)amino)ethyl) acetamide] | 100 |
| CC(=O)N(C)CCN(C)c1cc(-c2ccc(C)c(S(=O)(=O)N3CCOCC3)c2)ccn1 [SR-25124, N-methyl-N-(2-(methyl(4-(4-methyl-3-(morpholinosulfonyl)phenyl)pyridin-2-yl)amino)ethyl)acetamide] | 240 |
| Cc1ccc(NCc2ccncc2)cc1S(=O)(=O)N1CCOCC1 [SR-25464, 4-Methyl-3-(morpholinosulfonyl)-N-(pyridin-4-ylmethyl)aniline] | > 320 |
| CC(=O)N1CCN(CCn2cc(-c3ccc(C)c(S(=O)(=O)N4CCOCC4)c3)cn2)CC1 [SR-25484, 1-(4-(2-(4-(4-Methyl-3-(morpholinosulfonyl)phenyl)-1H-pyrazol-1-yl)ethyl)piperazin-1-yl)ethan-1-one] | 140 |
| Cc1ccc(-c2c(C)nn(C)c2C)cc1S(=O)(=O)N1CCOCC1 [SR-25584, 4-((2-Methyl-5-(1,3,5-trimethyl-1H-pyrazol-4-yl)phenyl)sulfonyl)morpholine] | > 320 |
| Cc1ccc(-c2n[nH]c(-c3ccccc3)n2)cc1S(=O)(=O)N1CCOCC1 [SR-25604-2] | 40 |
| CC(=O)NC1CCN(CCn2cc(-c3ccc(C)c(S(=O)(=O)N4CCOCC4)c3)cn2)CC1 [SR-25864, N-(1-(2-(4-(4-methyl-3-(morpholinosulfonyl)phenyl)-1H-pyrazol-1-yl)ethyl)piperidin-4-yl)acetamide] | 120 |
| O=S(=O)(c1ccc(-c2nnc(-c3ccccc3)[nH]2)cc1Cl)N1CCOCC1 [SR-26324, 4-((2-Chloro-4-(5-phenyl-4H-1,2,4-triazol-3-yl)phenyl)sulfonyl)morpholine] | > 320 |
| Cc1ccc(-c2nnc(C)c3ccccc23)cc1S(=O)(=O)N1CCOCC1 [SR-26424, 4-((2-Methyl-5-(4-methylphthalazin-1-yl)phenyl)sulfonyl)morpholine] | > 320 |
| O=S(=O)(c1ccc(-c2nnc(-c3ccccc3)[nH]2)cc1C(F)(F)F)N1CCOCC1 [SR-26444, 4-((4-(5-Phenyl-4H-1,2,4-triazol-3-yl)-2-(trifluoromethyl)phenyl)sulfonyl) morpholine] | > 320 |
| Cc1ccc(-c2nc3ccccn3n2)cc1S(=O)(=O)N1CCOCC1 [SR-26524, 4-((5-([1,2,4]Triazolo[1,5-a]pyridin-2-yl)-2-methylphenyl)sulfonyl) morpholine] | 50 |
| O=S(=O)(c1cc(-c2nnc(-c3ccccc3)[nH]2)ccc1Cl)N1CCOCC1 [SR-26525, 4-((2-Chloro-5-(5-phenyl-4H-1,2,4-triazol-3-yl)phenyl)sulfonyl)morpholine] | 100 |
| COc1ccc(-c2nnc(-c3ccccc3)[nH]2)cc1S(=O)(=O)N1CCOCC1 [SR-26624, 4-((2-Methoxy-5-(5-phenyl-4H-1,2,4-triazol-3-yl)phenyl)sulfonyl) morpholine] | 260 |
| Cc1ccc(-c2cnc3ccccn23)cc1S(=O)(=O)N1CCOCC1 [SR-27444, 4-((5-(Imidazo[1,2-a]pyridin-3-yl)-2-methylphenyl)sulfonyl)morpholine] | > 320 |
| Cc1ccc(-c2cccc3[nH]ncc23)cc1S(=O)(=O)N1CCOCC1 [SR-27484, 4-((5-(1H-Indazol-4-yl)-2-methylphenyl)sulfonyl)morpholine] | > 320 |
| N#Cc1ccc(-c2nnc(-c3ccccc3)[nH]2)cc1S(=O)(=O)N1CCOCC1 [SR-27504, 2-(Morpholinosulfonyl)-4-(5-phenyl-4H-1,2,4-triazol-3-yl)benzonitrile] | > 320 |
| Cc1ccc(-c2nnc(-c3ccccc3)s2)cc1S(=O)(=O)N1CCOCC1 [SR-27524, 4-((2-Methyl-5-(5-phenyl-1,3,4-thiadiazol-2-yl)phenyl)sulfonyl)morpholine] | 180 |
| Cc1ccc(-c2nnc(-c3ccccc3)o2)cc1S(=O)(=O)N1CCOCC1 [SR-27558, 4-((2-Methyl-5-(5-phenyl-1,3,4-oxadiazol-2-yl)phenyl)sulfonyl)morpholine] | 140 |
| Cc1ccc(-c2n[nH]c3ccccc23)cc1S(=O)(=O)N1CCOCC1 [SR-27564, 4-((5-(1H-Indazol-3-yl)-2-methylphenyl)sulfonyl)morpholine] | 135 |

| Compound | EC50 [nM] |
| --- | --- |
| Cc1ccc(-c2nnc(-c3ccc(F)cc3)[nH]2)cc1S(=O)(=O)N1CCOCC1 [SR-27964, 4-((5-(5-(4-Fluorophenyl)-4H-1,2,4-triazol-3-yl)-2-methylphenyl)sulfonyl) morpholine] | 40 |
| Cc1ccc(-c2nnc(-c3ccc(F)c(F)c3)[nH]2)cc1S(=O)(=O)N1CCOCC1 [SR-27984, 4-((5-(5-(3,4-Difluorophenyl)-4H-1,2,4-triazol-3-yl)-2-methylphenyl)sulfonyl) morpholine] | 20 |
| O=S(=O)(c1cc(-c2nnc(-c3ccccc3)[nH]2)ccn1)N1CCOCC1 [SR-28004, 4-((4-(5-Phenyl-4H-1,2,4-triazol-3-yl)pyridin-2-yl)sulfonyl)morpholine] | > 1200 |
| COc1ccc(-c2nnc(-c3ccc(C)c(S(=O)(=O)N4CCOCC4)c3)[nH]2)cc1 [SR-28104, 4-((5-(5-(4-Methoxyphenyl)-4H-1,2,4-triazol-3-yl)-2-methylphenyl)sulfonyl) morpholine] | 15 |
| O=S(=O)(c1cc(-c2nnc(-c3ccccc3)[nH]2)ccc1C(F)(F)F)N1CCOCC1 [SR-28125, 4-((5-(5-Phenyl-4H-1,2,4-triazol-3-yl)-2-(trifluoromethyl)phenyl)sulfonyl) morpholine] | 30 |
| Cc1ccc(-c2nnc(-c3ccc(Br)cc3)[nH]2)cc1S(=O)(=O)N1CCOCC1 [SR-28144, 4-((5-(5-(4-Bromophenyl)-4H-1,2,4-triazol-3-yl)-2-methylphenyl)sulfonyl) morpholine] | 40 |
| Cc1ccc(-c2nnc(-c3ccncc3)[nH]2)cc1S(=O)(=O)N1CCOCC1 [SR-28224, 4-((2-Methyl-5-(5-(pyridin-4-yl)-4H-1,2,4-triazol-3-yl)phenyl)sulfonyl) morpholine] | 18 |
| Cc1ccc(-c2nnc(C3CCCCC3)[nH]2)cc1S(=O)(=O)N1CCOCC1 [SR-28565, 4-((5-(5-Cyclohexyl-4H-1,2,4-triazol-3-yl)-2-methylphenyl)sulfonyl)morpholine] | 150 |
| Cc1ccc(-c2cnn(Cc3ccccc3)c2)cc1S(=O)(=O)N1CCOCC1 [SR-28764, 4-((5-(1-Benzyl-1H-pyrazol-4-yl)-2-methylphenyl)sulfonyl)morpholine] | 150 |
| Cc1ccc(-c2ncc(-c3ccccc3)[nH]2)cc1S(=O)(=O)N1CCOCC1 [SR-28804, 4-((2-Methyl-5-(5-phenyl-1H-imidazol-2-yl)phenyl)sulfonyl)morpholine] | 400 |
| Cc1ccc(-c2nnc(-c3ccccc3)n2C)cc1S(=O)(=O)N1CCOCC1 [SR-28864, 4-((2-Methyl-5-(4-methyl-5-phenyl-4H-1,2,4-triazol-3-yl)phenyl)sulfonyl) morpholine] | > 1200 |
| Cc1ccc(-c2ccnc(-c3ccc(F)cc3)c2)cc1S(=O)(=O)N1CCOCC1 [SR-28924, 4-((5-(2-(4-Fluorophenyl)pyridin-4-yl)-2-methylphenyl)sulfonyl)morpholine] | 40 |
| Cc1ccc(-c2cnn(-c3ccccc3)c2)cc1S(=O)(=O)N1CCOCC1 [SR-28925, 4-((2-Methyl-5-(1-phenyl-1H-pyrazol-4-yl)phenyl)sulfonyl)morpholine] | 20 |
| Cc1ccc(-c2ccnc(-c3ccccc3)c2)cc1S(=O)(=O)N1CCOCC1 [SR-28984, 4-((2-Methyl-5-(2-phenylpyridin-4-yl)phenyl)sulfonyl)morpholine] | 30 |
| Cc1ccc(-c2coc(-c3ccccc3)c2)cc1S(=O)(=O)N1CCOCC1 [SR-29044, 4-((2-Methyl-5-(5-phenylfuran-3-yl)phenyl)sulfonyl)morpholine] | > 1200 |
| Cc1ccc(-c2ccn(-c3ccccc3)c2)cc1S(=O)(=O)N1CCOCC1 [SR-29084, 4-((2-Methyl-5-(1-phenyl-1H-pyrrol-3-yl)phenyl)sulfonyl)morpholine] | 600 |
| Cc1ccc(-c2csc(-c3ccccc3)c2)cc1S(=O)(=O)N1CCOCC1 [SR-29184, 4-((2-Methyl-5-(5-phenylthiophen-3-yl)phenyl)sulfonyl)morpholine] | > 1200 |
| Cc1ccc(-c2ccnc(N3CCOCC3)c2)cc1S(=O)(=O)N1CCOCC1 [SR-29224, 4-(4-(4-Methyl-3-(morpholinosulfonyl)phenyl)pyridin-2-yl)morpholine] | 6 |
| Cc1ccc(-c2c[nH]cc2-c2ccccc2)cc1S(=O)(=O)N1CCOCC1 [SR-29285, 4-((2-Methyl-5-(4-phenyl-1H-pyrrol-3-yl)phenyl)sulfonyl)morpholine] | > 1200 |
| O=S(=O)(c1cc(-c2nnc(-c3ccccc3)[nH]2)ccc1C1CC1)N1CCOCC1 [SR-29784, 4-((2-Cyclopropyl-5-(5-phenyl-4H-1,2,4-triazol-3-yl)phenyl)sulfonyl) morpholine] | 600 |
| Cc1ccc(-c2cn(-c3ccccc3)nn2)cc1S(=O)(=O)N1CCOCC1 [SR-30084, 4-((2-Methyl-5-(1-phenyl-1H-1,2,3-triazol-4-yl)phenyl)sulfonyl)morpholine] | 30 |
| C[C@@H]1CN(S(=O)(=O)c2cc(-c3nnc(-c4ccccc4)[nH]3)ccc2C(F)(F)F)C[C@H](C)O1 [SR-30786, (cis)-2,6-dimethyl-4-((5-(5-phenyl-4H-1,2,4-triazol-3-yl)-2-(trifluoromethyl)phenyl)sulfonyl)morpholine] | > 1200 |
